{
  "source": "patent US20060148057A1",
  "about": "“Thioredoxin mutants and uses thereof” (priority 2002, published 2006)",
  "key": {"[1]": {"tested_on": "ASK1", "assay": "TNF-induced ASK1 activation in BAEC, in vitro kinase assay with GST-MKK4", "format": "cell-based, Bovine", "settings": "Nac 1 mM pretreatment, TNF-α 10 ng/ml 15 min; n=3, p<0.01", "description": "J Immunol. 159:3508-18 (1997)) using GST-MKK4 and GST-c-Jun (1-80) fusion protein as a substrate, respectively. Briefly, total 400 μg cell lysates were immunoprecipitated with 5 μg of antibody against ASK1 or JNK1 (Santa Cruz). The immunoprecipitates were mixed with 10 μg GST-MKK4 or GST-c-Jun (1-80) suspended in the kinase buffer (20 mM Hepes, pH 7.6, 20 mM MgCl2, 25 mM β-glycerophosphate, 100 μM sodium orthovanadate, 2 mM DTT, 20 μM ATP) containing 1 μl (10 μCi) of [γ-32P] ATP. The kinase assay was performed at 25° C. for 30 min. The reaction was terminated by the addition of Laemmli sample buffer and the phosphorylated GST-MKK4 or GST-c-Jun (1-80) was visualized by autoradiography.\nTNF dissociates wild type Trx but not Trx-C32S or Trx-C35Sfroin ASK1 in vivo. Trx-C32S and Trx-C35S were examiner to determine whether they constitutively bind to ASK1 in vivo. Regulation of ASK1 by Trx was first examined to determine if such regulation is ROS-dependent in EC. BAEC were either untreated or treated with N-acetyl-cysteine (Nac, 1 mM) or vehicle for 60 min prior to TNF-α (10 ng/ml) stimulation for 15 min. TNF-induced ASK1 activation was measured by an in vitro kinase assay using GST-MKK4 (JNKK1) fusion protein as a substrate. TNF activated ASK1 in EC (FIG. 5A). […] Association of ASK1 with Trx was easily detected in untreated EC cells (FIG. 5B, Ctrl). […]"}, "[2]": {"tested_on": "ASK1", "assay": "Association of Trx with ASK1 in vivo in BAEC (co-immunoprecipitation)", "format": "binding, Bovine", "settings": "endogenous proteins, IP anti-Trx / Western anti-ASK1; Nac pretreatment then TNF", "description": "Immunoprecipitation and immunoblotting EC after various treatments were washed twice with cold PBS and lysed in 1.5 ml of cold lysis buffer (50 mM Tris-HC, pH 7.6, 150 mM NaCl, 0.1% Triton X-100, 0.75% Brij 96, 10 μg/ml aprotinin, 10 μg/ml leupeptin, 2 mM PMSF, 1 mM EDTA) for 20 min on ice. Protein concentrations were determined with a Bio-Rad kit. For immunoprecipitation to analyze protein interaction in vivo, 400 μg of cell lysate supematant were incubated with 5 μg of the first protein-specific antiserum (e.g. anti-Trx from Medical & Biological Laboratory) for 2 h with 50 μl of GammaBind plus Sepharose. Immune complexes were collected after each immunoprecipitation by centrifugation at 14,000× g for 10 min followed by 4 washes with lysis buffer. The immune complexes were subjected to Western blot with the second protein (e.g., ASK1)-specific antibody (Santa Cruz Biotech, Santa Cruz, Calif.). The chemiluminescence was detected using an ECL kit according to the instructions of the manufacturer (Amersham Life Science, Arlington Heights, Ill.). […]\nTNF dissociates wild type Trx but not Trx-C32S or Trx-C35Sfroin ASK1 in vivo. […] TNF-induced ASK1 activation was measured by an in vitro kinase assay using GST-MKK4 (JNKK1) fusion protein as a substrate. […] Association of ASK1 with Trx was easily detected in untreated EC cells (FIG. 5B, Ctrl). […]"}, "[3]": {"tested_on": "neonatal rat cardiomyocytes", "settings": "100 μM H2O2, 15 min post-treatment", "method": "Primary cultures of neonatal rat cardiac ventricular myocytes were prepared by the method of Simpson and Savion (Simpson P et al. Differentiation of rat myocytes in single cell cultures with and without proliferating nonmyocardial cells. Cross-striations, ultrastructure, and chronotropic response to isoproterenol. Circ Res. 50:101-16 (1982)) with minor modifications. Briefly, the ventricles were excised from 1-2 day old Wistar rats under ethyl ether anesthesia and minced with scissors in Ca^2+ free Krebs-Henseleit buffer (KHB) solution. The cells were dispersed by adding KHB containing 0.05% trypsin and 0.05% collagenase type II. They were stirred with the use of a small magnetic stirrer bar at 37° C. for 10 min, and the supernatants were saved in cold DMEM containing 10% fetal calf serum (complete DMEM), and digestion was repeated four times. The resultant cell suspension was centrifuged, and the pellet was resuspended in the medium. The cells were plated onto culture flasks for 1.5 hours to remove non-cardiac myocytes. The unattached cells were removed and seeded at 4×10^5 per well in 2.2 cm multi-well gelatin-coated culture plates in DMEM containing 10% fetal calf serum, 100 U/ml penicillin and 100 μg/ml streptomycin. […]\nCardiomyocyte contraction was determined by microscopy. […]"}, "[4]": {"tested_on": "adult rat cardiomyocytes", "assay": "Twitch amplitude of field-stimulated adult rat cardiac myocytes", "settings": "100 μM H2O2, field stimulated at 1 Hz, n=15", "from_the_text": "Phosphorylation of endogenous cTnT in cardiomyocytes was examined by in vivo labeling with ^32P-orthophosphate and cell lysates were immunoprecipitated with anti-cTnT followed by SDS-PAGE/autoradiography."}, "[5]": {"tested_on": "caspase 3", "assay": "ASK1-induced caspase 3 activity assay in BAEC (Ac-DEVD-AMC substrate)", "format": "cell-based, Bovine", "settings": "100 μM inhibitor in lysate assay", "description": "Caspase 3 activity assay: Caspase 3 activity was measured with a Caspase 3 fluorescence kit (Sigma) according to the Manufacturer's protocol. Briefly, BAEC were harvested in Caspase 3 lysis buffer (25 mM Hepes, pH 7.4, 5 mM CHAPS, 5 mM DTT) and incubated on ice for 15-20 min followed by a centrifugation at 14,000× g for 10-15 min at 4° C. For each reaction, 5 μl (200 μg) of cell lysate was incubated with 200 μl of 16 μM Caspase 3 peptide substrate acetyl-ASP-Glu-Val-Asp-7 amido-4-methylcoumarin (Ac-DEVD-AMC) in the assay buffer (25 mM Hepes, pH 7.4, 5 mM EDTA, 0.1% CHAPS, 5 mM DTT) in the presence or absence of 100 μM Caspase 3 inhibitor (Ac-DEVD-CHO). The reaction was incubated in the dark for 1-1.5 h and fluorescence was measured in a fluorescence plate reader. The measured fluorescence was used as an arbitrary unit.\nThen the effects. of Trx on ASK1-induced caspase 3 activation, a hallmark of the execution of apoptotic cell death (Green D R. Apoptotic pathways: paper wraps stone blunts scissors. Cell. 102:1-4 (2000); Hengartner MO. The biochemistry of apoptosis. Nature. 407:770-6 2000)) was examined. Caspase 3 activity was determined by an in vitro assay using peptide substrate acetyl-ASP-Glu-Val-Asp-7 amido-4-methylcounarin (Ac-DEVD-AMC). Overexpression of ASK1 in BAEC increased caspase 3 activity compared to the control cells (FIG. 6B)."}},
  "data": [
    {"compound": "CC(=O)N[C@@H](CS)C(=O)O", "note": "[Nac, N-acetyl-cysteine, reference compound]", "values": [
      {"measurement": "inhibition of TNF-stimulated ASK1 activity", "setting": "[1]", "value": 70, "unit": "%"},
      {"measurement": "TNF-induced dissociation of ASK1 from Trx", "setting": "[2]", "value": "prevented"}
    ]},
    {"compound": "OO", "note": "[Trx H2O2, Hydrogen peroxide]", "values": [
      {"measurement": "spontaneous beating of neonatal cardiomyocytes", "setting": "[3]", "value": "completely inhibited"},
      {"measurement": "time to complete inhibition of twitch", "setting": "[4]", "value": "2.38 ± 018", "unit": "min"}
    ]},
    {"compound": "Ac-DEVD-CHO [reference compound]", "values": [
      {"measurement": "caspase 3 activity in presence of caspase 3 inhibitor", "setting": "[5]", "value": "specifically inhibited"}
    ]}
  ]
}
